Source: paper PMC4474554 (PLoS ONE, 2015)

Tested on: EGFR kinases (all the variants tested)
Experiment: In vitro binding assay (ATP beads), all variant EGFR kinases
Details: at a concentration of 1000 μM

binding of exogenous ATP to EGFR kinases: weakly bound
SMILES: Nc1ncnc2c1ncn2[C@@H]1O[C@H](COP(=O)(O)OP(=O)(O)OP(=O)(O)O)[C@@H](O)[C@H]1O [ATP]
